{"source": "paper PMC9679999", "about": "“A Useful Guide to Lectin Binding: Machine-Learning Directed Annotation of 57 Unique Lectin Specificities” (ACS Chemical Biology, 2022)", "format_in_all_cases": "binding", "key": {"[1]": {"biological_target": "Marasmius oreades agglutinin (MOA) (Marasmius oreades, UniProt Q8X123)", "sequence (Q8X123 entry or part of it)": "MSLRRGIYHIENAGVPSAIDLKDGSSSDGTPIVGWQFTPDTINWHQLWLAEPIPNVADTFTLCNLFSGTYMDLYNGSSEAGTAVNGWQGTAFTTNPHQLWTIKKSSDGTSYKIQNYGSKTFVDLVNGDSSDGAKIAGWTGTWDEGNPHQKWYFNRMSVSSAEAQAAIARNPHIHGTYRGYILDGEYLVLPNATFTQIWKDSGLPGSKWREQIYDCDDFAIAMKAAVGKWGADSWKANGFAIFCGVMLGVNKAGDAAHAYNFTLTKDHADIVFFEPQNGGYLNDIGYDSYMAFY", "assay": "CFG glycan microarray v5, biotinylated lectin, Cy5-streptavidin"}, "[2]": {"biological_target": "T1, Cholera Toxin B Subunit (CTB) (Vibrio cholerae, UniProt P01556)", "T1 construct": "gene ctxB", "T1 sequence (P01556 22-124 limits assumed)": "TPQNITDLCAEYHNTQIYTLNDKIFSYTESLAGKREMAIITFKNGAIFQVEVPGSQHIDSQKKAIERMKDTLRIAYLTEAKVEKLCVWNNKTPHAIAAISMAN"}, "[3]": {"biological_target": "T2, Psophocarpus tetragonolobus lectin-I (PTL-I/PTA-I) (Psophocarpus tetragonolobus, UniProt O24313)", "T2 construct": "gene WBAI", "T2 sequence (O24313 1-242)": "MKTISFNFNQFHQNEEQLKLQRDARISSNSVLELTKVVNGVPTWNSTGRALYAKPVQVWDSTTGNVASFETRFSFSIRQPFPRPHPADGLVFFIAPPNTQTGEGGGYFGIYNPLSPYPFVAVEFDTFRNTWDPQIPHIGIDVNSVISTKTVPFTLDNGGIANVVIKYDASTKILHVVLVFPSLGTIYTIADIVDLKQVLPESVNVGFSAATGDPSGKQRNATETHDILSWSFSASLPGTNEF", "assay": "CFG glycan microarray v5, biotinylated lectin, Cy5-streptavidin"}, "[4]": {"biological_target": "T3, Hippeastrum hybrid Lectin (HHA, HHL) (Hippeastrum hybrid cultivar, UniProt Z9FHC8O5N0)", "T3 construct": "commercial lectin (EY and Vector), biotinylated", "T3 sequence (Z9FHC8O5N0 1-108)": "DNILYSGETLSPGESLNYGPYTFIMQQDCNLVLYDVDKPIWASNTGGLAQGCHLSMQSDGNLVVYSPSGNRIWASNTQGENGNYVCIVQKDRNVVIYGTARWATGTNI", "assay": "CFG glycan microarray v5, biotinylated lectin, Cy5-streptavidin"}}, "data": [{"smiles": "C[C@@H]1O[C@@H](O[C@H]2C(O)O[C@H](CO)[C@H](O)[C@@H]2O[C@H]2O[C@H](CO)[C@H](O)[C@H](O)[C@H]2O)[C@@H](O)[C@H](O)[C@@H]1O", "note": "(stereo partly shown) [B trisaccharide]", "values": [{"measurement": "CFG glycan microarray v5, biotinylated lectin, Cy5-streptavidin", "setting": "[1]", "result": "This motif lies within the B trisaccharide, which is preferentially bound by this lectin"}]}, {"smiles": "CC(=O)N[C@H]1[C@H](O[C@@H]2[C@H](O[C@]3(C(=O)O)C[C@H](O)[C@@H](NC(C)=O)[C@H]([C@H](O)[C@H](O)CO)O3)[C@@H](O)[C@H](O[C@H]3[C@H](O)[C@@H](O)C(O)O[C@@H]3CO)O[C@@H]2CO)O[C@H](CO)[C@H](O)[C@@H]1O[C@@H]1O[C@H](CO)[C@H](O)[C@H](O)[C@H]1O", "note": "(stereo partly shown) [GM1]", "values": [{"measurement": "CFG glycan microarray v5, biotinylated lectin, Cy5-streptavidin", "setting": "[2]", "result": "Our analysis found only two glycan binders, GM1 and fucosylated GM1"}]}, {"smiles": "CC(=O)N[C@H]1[C@@H](O[C@H]2[C@@H](O)[C@@H](CO)OC(O)[C@@H]2O[C@@H]2O[C@@H](C)[C@@H](O)[C@@H](O)[C@@H]2O)O[C@H](CO)[C@H](O)[C@@H]1O", "note": "(stereo partly shown) [blood group A trisaccharide]", "values": [{"measurement": "CFG glycan microarray v5, biotinylated lectin, Cy5-streptavidin", "setting": "[3]", "result": "we found blood group A trisaccharides"}]}, {"smiles": "OC[C@H]1O[C@H](OC[C@H]2OC(O)[C@@H](O)[C@@H](O[C@H]3O[C@H](CO)[C@@H](O)[C@H](O)[C@@H]3O)[C@@H]2O)[C@@H](O)[C@@H](O)[C@@H]1O", "note": "(stereo partly shown) [mannose core trisaccharide]", "values": [{"measurement": "CFG glycan microarray v5, biotinylated lectin, Cy5-streptavidin", "setting": "[4]", "result": "This lectin shows the highest affinity for the mannose core trisaccharide"}]}]}
